Data published in publication PMC5653977 (EMBO Molecular Medicine, 2017).
Structures can show the parent of a compound that is named as a salt.

System: NRG1-ERBB4 signaling
Experiment: Nrg1-ERBB4-PIK3R1 split TEV co-culture compound screen of the NIH Clinical Collection
Format: cell-based, human
Conditions: not given

Compound `CNCC[C@H](Oc1cccc2ccccc12)c1cccs1` [DULOXETINE HCl] has a Z-SCORE of -0.22.
`CNCC[C@H](Oc1cccc2ccccc12)c1cccs1` [Duloxetine] showed a Z-SCORE of -0.82.

Same assay, conditions: NIH Clinical Collection NCC-003 raw data; compounds ranked by Z-score; 'flagged' given instead of a Z-score

Going from `Clc1ccc(CO/N=C(\Cn2ccnc2)c2ccc(Cl)cc2Cl)c(Cl)c1` [OXICONAZOLE NITRATE] to `CC(=O)NC[C@H]1CN(c2ccc(N3CCOCC3)c(F)c2)C(=O)O1` [LINEZOLID], the Z-SCORE rises from -1.71 to -1.43.

Going from `C[C@]12CCC(=O)C=C1CC[C@@H]1[C@@H]2CC[C@@]2(C)[C@H]1CC[C@]2(O)C(=O)CO` [ReichsteinÂ’s substanceÂ S] to `Br.COc1ccc2c(c1)[C@@]13CCCC[C@H]1[C@@H](C2)N(C)CC3`, the Z-SCORE rises from -1.82 to -1.1.

First: COc1cc([C@@H]2c3cc4c(cc3[C@@H](O[C@@H]3O[C@@H]5CO[C@@H](C)O[C@H]5[C@H](O)[C@H]3O)[C@H]3COC(=O)[C@H]23)OCO4)cc(OC)c1O [Etoposide]
Second: CCCCCCNC(=O)n1cc(F)c(=O)[nH]c1=O [CARMOFUR]
The Z-SCORE of the first is lower: -2.67 for the first, -2.48 for the second.

In the case of `O=c1c(-c2ccccc2)c1-c1ccccc1` [diphenylcyclopropenone], the Z-SCORE is reported as “flagged”.
`CC(C)/N=c1\cc2n(-c3ccc(Cl)cc3)c3ccccc3nc-2cc1Nc1ccc(Cl)cc1` [CLOFAZIMINE] was tested, and the Z-SCORE was “flagged”.
In the case of `COCc1c(C(C)C)nc(C(C)C)c(/C=C/[C@@H](O)C[C@@H](O)CC(=O)[O-])c1-c1ccc(F)cc1.[Na+]` [CERIVASTATIN Na], the Z-SCORE is reported as “flagged”.

Same assay, conditions: compound screen of the NIH Clinical Collection, sheet raw data NCC-003; compounds ranked by Z-score

Compared with `Cc1cccc(CCN2CCC(C(=O)c3ccc(NS(C)(=O)=O)cc3)CC2)n1.Cl.Cl`, `O=C1c2c(O)cc(O)cc2OC(c2ccc(O)c(O)c2)C1O` (racemic) [TAXIFOLIN-(+/-)] is higher in Z-SCORE: -0.17 for the first, -0.12 for the second.

Going from `Oc1ccc(/C=C/c2cc(O)cc(O)c2)cc1` [Resveratrol] to `O=C1c2c(O)cc(O)cc2OC(c2ccc(O)c(O)c2)C1O` (stereo not drawn) [TAXIFOLIN-(+)], the Z-SCORE falls from 2.61 to 1.25.

Compared with `O=C(c1ccccc1)c1ccc2n1CCC2C(=O)O` (stereo not drawn) [Ketorolac tromethamine], `COc1ccc2c(c1)c(CC(=O)O)c(C)n2C(=O)c1ccc(Cl)cc1` [Indomethacin] is higher in Z-SCORE: -0.4 for the first, 0.08 for the second.

First: C[N+]1(C)CCC(OC(=O)C(O)(c2ccccc2)C2CCCC2)C1 (stereo not drawn) [Glycopyrrolate, reference compound]
Second: CN[C@H]1CC[C@@H](c2ccc(Cl)c(Cl)c2)c2ccccc21 [Sertraline, reference compound]
The Z-SCORE of the first is higher: 0 for the first, -0.03 for the second.

Going from `CN1CCc2cc(Cl)c(O)cc2[C@@H](c2ccccc2)C1.Cl` [R(+)-SCH-23390 hydrochloride] to `COc1cc(N)c(Cl)cc1C(=O)NC1CN2CCC1CC2` (stereo not drawn) [Zacopride], the Z-SCORE falls from 0.87 to -0.82.

Going from `C[C@]12CC[C@@H]3c4ccc(O)cc4CC[C@H]3[C@@H]1CC[C@@H]2O` [BETA-ESTRADIOL] to `N#Cc1ccc(C(c2ccc(C#N)cc2)n2cncn2)cc1` [LETROZOLE], the Z-SCORE falls from 0.81 to -1.06.

First: Nc1nc2ccc(Cl)cc2c2nc(-c3ccco3)nn12 [CGS 15943, reference compound]
Second: Cc1sc(N)c(C(=O)c2cccc(C(F)(F)F)c2)c1C [PD 81723]
The Z-SCORE of the first is higher: 6.59 for the first, 0.13 for the second.

First: COC1=C(OC)C(=O)C(CCCCCCCCCCO)=C(C)C1=O [IDEBENONE]
Second: CN1CCN(c2c(F)cc3c(=O)c(C(=O)O)cn4c3c2SCC4)CC1.Cl [RUFLOXACIN HCl]
The Z-SCORE of the first is higher: 2.79 for the first, 1.1 for the second.

Compared with `Cc1ccnc2c1NC(=O)c1cccnc1N2C1CC1` [Viramune], `COc1cc(C(=O)NS(=O)(=O)c2ccccc2C)ccc1Cc1cn(C)c2ccc(NC(=O)OC3CCCC3)cc12` [ZAFIRLUKAST] is lower in Z-SCORE: 0.09 for the first, -0.67 for the second.

Going from `CCOC(=O)O[C@]1(C(=O)OCCl)CC[C@H]2[C@@H]3CCC4=CC(=O)C=C[C@]4(C)[C@H]3[C@@H](O)C[C@@]21C` [LOTEPREDNOL ETABONATE] to `CC(C)Oc1ccc2c(=O)c(-c3ccccc3)coc2c1` [IPRIFLAVONE], the Z-SCORE rises from 0.32 to 1.41.

Compared with `COc1cc(C(=O)NC2CCCNC2)cc(OC)c1OC` (stereo not drawn) [TROXIPIDE], `OC[C@H]1O[C@@H](Oc2cc(O)cc(/C=C/c3ccc(O)cc3)c2)[C@H](O)[C@@H](O)[C@@H]1O` [PICEID] is higher in Z-SCORE: -0.33 for the first, 0.85 for the second.

Compared with `C=CC1=C(C(=O)O)N2C(=O)[C@@H](NC(=O)/C(=N\OCC(=O)O)c3csc(N)n3)[C@H]2SC1` [CEFIXIME TRIHYDRATE], Benzeneacetic acid is lower in Z-SCORE: 1.63 for the first, -0.01 for the second.

Going from `COc1ccccc1N1CCN(CCCNc2cc(=O)n(C)c(=O)n2C)CC1` [URAPIDIL HYDROCHLORIDE] to `COc1cc(-c2ccc(=O)[nH]n2)ccc1OC(F)F`, the Z-SCORE falls from 0.51 to 0.32.

First: CS(=O)(=O)c1ccc(C2=C(c3ccccc3)C(=O)OC2)cc1 [ROFECOXIB]
Second: CCc1oc2ccccc2c1C(=O)c1cc(Br)c(O)c(Br)c1
The Z-SCORE of the first is higher: 0.81 for the first, 0.47 for the second.

First: NC[C@H]1CC[C@H](C(=O)Oc2ccc(CCC(=O)O)cc2)CC1 [CETRAXATE HCl]
Second: NC(=O)C[S+]([O-])C(c1ccccc1)c1ccccc1 (stereo not drawn) [Modafinil]
The Z-SCORE of the first is lower: 0.04 for the first, 0.43 for the second.

First: CC(C)(C)NC(=O)[C@H]1CC[C@H]2[C@@H]3CC[C@H]4NC(=O)C=C[C@]4(C)[C@H]3CC[C@]12C [FINASTERIDE]
Second: C[C@@H](c1ncncc1F)[C@](O)(Cn1cncn1)c1ccc(F)cc1F [VORICONAZOLE]
The Z-SCORE of the first is lower: -0.75 for the first, -0.06 for the second.

First: CCOC(=O)N1CCC(=C2c3ccc(Cl)cc3CCc3cccnc32)CC1 [LORATADINE]
Second: Oc1ccc2c3c1O[C@H]1c4[nH]c5ccccc5c4C[C@@]4(O)[C@@H](C2)N(CC2CC2)CC[C@]314 [Naltrindole]
The Z-SCORE of the first is higher: 0.21 for the first, -0.41 for the second.

Going from `Clc1ccccc1C(c1ccccc1)(c1ccccc1)n1ccnc1` [CLOTRIMAZOLE] to `CCCc1nc(C)c2c(=O)[nH]c(-c3cc(S(=O)(=O)N4CCN(CC)CC4)ccc3OCC)nn12.O=C(O)CC(O)(CC(=O)O)C(=O)O` [Vardenafil citrate, reference compound], the Z-SCORE rises from -0.73 to 5.88.

Same assay, conditions: compounds at 10 μM, 24 h; PC12 split TEV assay cells co-cultured with Nrg1-expressing PC12 cells; analysed with cellHTS2

Going from `CC(C)N(CCC(C(N)=O)(c1ccccc1)c1ccccn1)C(C)C` (stereo not drawn) [Norpace, reference compound] to `CC(C)NCC(O)COc1cccc2ccccc12` (stereo not drawn) [Inderal, reference compound], the Z-SCORE falls from 0.73 to -0.81.

Going from `CC(=O)O[C@]1(C(C)=O)CC[C@H]2[C@@H]3C[C@H](C)C4=CC(=O)CC[C@]4(C)[C@H]3CC[C@@]21C` [Medroxyprogesterone 17-acetate, reference compound] to `CC(=O)[C@@]1(O)CC[C@H]2[C@@H]3C[C@H](C)C4=CC(=O)C=C[C@]4(C)[C@@]3(F)[C@@H](O)C[C@@]21C` [Fluorometholone, reference compound], the Z-SCORE rises from -1.59 to -0.4.

Going from `COc1ccc([C@@H]2Sc3ccccc3N(CCN(C)C)C(=O)[C@@H]2OC(C)=O)cc1.Cl` (relative stereo) [(+)-CIS-DILTIAZEM HYDROCHLORIDE, reference compound] to `CC(CN1c2ccccc2Sc2ccccc21)N(C)C` (stereo not drawn) [Phenergan, reference compound], the Z-SCORE rises from -0.13 to 0.41.

Compared with `CCc1cccc2c3c([nH]c12)C(CC)(CC(=O)O)OCC3` (stereo not drawn) [Etodolac, reference compound], `O=C1CC[C@@]2(O)[C@H]3Cc4ccc(O)c5c4[C@@]2(CCN3CC2CC2)[C@H]1O5` [NALTREXONE HYDROCHLORIDE, reference compound] is higher in Z-SCORE: -0.28 for the first, 0.59 for the second.

Compared with `CN(C)CCCN1c2ccccc2CCc2ccc(Cl)cc21` [Anafranil, reference compound], `CC1Cc2ccccc2N1NC(=O)c1ccc(Cl)c(S(N)(=O)=O)c1` (stereo not drawn) [INDAPAMIDE, reference compound] is lower in Z-SCORE: 0.12 for the first, 0.07 for the second.

First: C[n+]1ccccc1/C=N/O.[Cl-] [PYRIDINE-2-ALDOXIME METHOCHLORIDE, reference compound]
Second: CC1(C)S[C@@H]2[C@H](NC(=O)COc3ccccc3)C(=O)N2[C@H]1C(=O)O [Penicillin V, reference compound]
The Z-SCORE of the first is higher: 2.7 for the first, 0.66 for the second.

First: C[N+]1(C)CCC(OC(=O)C(O)(c2ccccc2)C2CCCC2)C1 (stereo not drawn) [Glycopyrrolate, reference compound]
Second: CN1[C@@H]2CC[C@H]1C[C@@H](OC(c1ccccc1)c1ccccc1)C2.CS(=O)(=O)O [Cogentin Mesylate, reference compound]
The Z-SCORE of the first is higher: -0.44 for the first, -2.36 for the second.

Compared with `CC1(C)O[C@@H]2C[C@H]3[C@@H]4C[C@H](F)C5=CC(=O)C=C[C@]5(C)[C@@]4(F)[C@@H](O)C[C@]3(C)[C@]2(C(=O)CO)O1` [FLUOCINOLONE ACETONIDE, reference compound], `CCCc1nc(C)c2c(=O)[nH]c(-c3cc(S(=O)(=O)N4CCN(CC)CC4)ccc3OCC)nn12.O=C(O)CC(O)(CC(=O)O)C(=O)O` [Vardenafil citrate, reference compound] is higher in Z-SCORE: -0.16 for the first, 5.88 for the second.

Compared with `Nc1ccc(S(=O)(=O)c2ccc(N)cc2)cc1` [Dapsone, reference compound], `CCN(CC)CCNC(=O)c1ccc(N)cc1` [Pronestyl, reference compound] is higher in Z-SCORE: -0.6 for the first, 0.04 for the second.

Compared with `COC(=O)C1=C(C)NC(C)=C(C(=O)OCCN(C)Cc2ccccc2)C1c1cccc([N+](=O)[O-])c1` (stereo not drawn) [Cardene, reference compound], `O=C(O)c1cc(=O)c2c(OCC(O)COc3cccc4oc(C(=O)O)cc(=O)c34)cccc2o1` [Cromolyn Sodium, reference compound] is higher in Z-SCORE: -1.07 for the first, 1.88 for the second.

Going from `Cn1cc[nH]c1=S` [Methimazole, reference compound] to `CN/C(=N/CCSCc1nc[nH]c1C)NC#N` [Cimetidine, reference compound], the Z-SCORE falls from 3 to -0.45.

First: Cc1ccc(N(CC2=NCCN2)c2cccc(O)c2)cc1 [PHENTOLAMINE HCL, reference compound]
Second: O=C(O)c1cc2ccccc2c(Cc2c(O)c(C(=O)O)cc3ccccc23)c1O.OCCOCCN1CCN(C(c2ccccc2)c2ccc(Cl)cc2)CC1 [Vistaril Pamoate, reference compound]
The Z-SCORE of the first is higher: -1.17 for the first, -1.45 for the second.

First: CC(=O)OCC[N+](C)(C)C [Miochol, reference compound]
Second: CC(C)(C)NCC(O)c1cc(O)cc(O)c1 (stereo not drawn) [Terbutaline Sulfate, reference compound]
The Z-SCORE of the first is higher: 0.45 for the first, 0.15 for the second.

For `CN[C@H]1CC[C@@H](c2ccc(Cl)c(Cl)c2)c2ccccc21` [Sertraline, reference compound], the Z-SCORE was “flagged”.
For `Nc1ncn([C@@H]2O[C@H](CO)[C@@H](O)[C@H]2O)c(=O)n1` [5-Azacytidine, reference compound], the Z-SCORE was “flagged”.
